Results from ChEMBL document CHEMBL4373692, “Structure-Based Development of (1-(3'-Mercaptopropanamido)methyl)boronic Acid Derived Broad-Spectrum, Dual-Action Inhibitors of Metallo- and Serine-β-lactamases” (J Med Chem, 2019).
Converted amounts (≈) assume the structure as drawn.

Legend:
[1] = Inhibition of bacterial N-terminal His-tagged TEV protease site linked VIM-2 (27 to 266 amino acids) expressed in Escherichia coli Transetta (DE3) preincubated for 10 mins followed by FC5 fluorescent substrate addition by fluorescence assay; parameters: species or system Bacteria
[2] = Inhibition of bacterial N-terminal His-tagged TEV protease site linked NDM-1 (1 to 270 amino acids) expressed in Escherichia coli Transetta (DE3) preincubated for 10 mins followed by FC5 fluorescent substrate addition by fluorescence assay; parameters: species or system Bacteria
[3] = Inhibition of bacterial N-terminal His-tagged TEV protease site linked SFH1 (3 to 234 amino acids) expressed in Escherichia coli Transetta (DE3) preincubated for 10 mins followed by FC5 fluorescent substrate addition by fluorescence assay; parameters: species or system Bacteria
[4] = Inhibition of bacterial N-terminal His-tagged TEV protease site linked GOB-18 (1 to 290 amino acids) expressed in Escherichia coli Transetta (DE3) preincubated for 10 mins followed by FC5 fluorescent substrate addition by fluorescence assay; parameters: species or system Bacteria
[5] = Inhibition of bacterial N-terminal His-tagged TEV protease site linked KPC-2 (29 to 289 amino acids) expressed in Escherichia coli Transetta (DE3) preincubated for 10 mins followed by FC5 fluorescent substrate addition by fluorescence assay; parameters: species or system Bacteria
[6] = biological target: Beta-lactamase TEM (Bacteria, UniProt P62593); assay: Inhibition of bacterial N-terminal His-tagged TEV protease site linked TEM-1 (24 to 286 amino acids) expressed in Escherichia coli Transetta (DE3) preincubated for 10 mins followed by FC5 fluorescent substrate addition by fluorescence assay
[7] = Inhibition of bacterial N-terminal His-tagged TEV protease site linked AmpC (20 to 377 amino acids) expressed in Escherichia coli Transetta (DE3) preincubated for 10 mins followed by FC5 fluorescent substrate addition by fluorescence assay; parameters: species or system Bacteria
[8] = Inhibition of bacterial N-terminal His-tagged TEV protease site linked OXA-48 (1 to 265 amino acids) expressed in Escherichia coli Transetta (DE3) preincubated for 10 mins followed by FC5 fluorescent substrate addition by fluorescence assay; parameters: species or system Bacteria
[9] = system: serine hydrolase; assay: (§1) Inhibition of serine hydrolase in Escherichia coli Transetta (DE3) cell lysates at 50 uM preincubated for 30 mins followed by TAMRA-FP probe labeling for 20 mins by SDS-PAGE based ABPP analysis; format: subcellular, Lysate; details: Escherichia coli Transetta (DE3) cell lysates, probe TAMRA-FP
[10] = system: serine hydrolase; assay: (§2) Inhibition of serine hydrolase in HEK293T cell lysates at 50 uM preincubated for 30 mins followed by TAMRA-FP probe labeling for 20 mins by SDS-PAGE based ABPP analysis; format: subcellular, Lysate; details: human, HEK293T cell lysates, probe TAMRA-FP
[11] = biological target: Angiotensin-converting enzyme 2 (Homo sapiens, UniProt Q9BYF1); assay: (§3) Inhibition of human C-terminal His/FLAG-tagged ACE-2 expressed in HEK293 cells at 100 uM preincubated for 10 mins followed by Mca-Ala-Pro-Lys(Dnp)-OH substrate addition by fluorescence assay relative to control; format: cell-based; details: hek293, 100 µM
[12] = system: Escherichia coli; assay: Inhibition of beta lactamase NDM1 in Escherichia coli BAA-2452 assessed as potentiation of meropenem-induced antibacterial activity by measuring meropenem MIC at 50 uM after 16 to 20 hrs by broth microdilution assay (reference value: 32 ug/ml)
[13] = biological target: Metallo-beta-lactamase type 2 (Klebsiella pneumoniae) (UniProt C7C422); assay: Inhibition of beta lactamase NDM1 in Klebsiella pneumoniae 13249 assessed as potentiation of meropenem-induced antibacterial activity by measuring meropenem MIC at 50 uM after 16 to 20 hrs by broth microdilution assay (reference value: 64 ug/ml)
[14] = system: Klebsiella pneumoniae; assay: Inhibition of beta lactamase KPC-2 in Klebsiella pneumoniae BAA-1705 assessed as potentiation of meropenem-induced antibacterial activity by measuring meropenem MIC at 50 uM after 16 to 20 hrs by broth microdilution assay
[15] = system: Klebsiella pneumoniae; assay: Inhibition of beta lactamase KPC-2 in Klebsiella pneumoniae 5846 assessed as potentiation of meropenem-induced antibacterial activity by measuring meropenem MIC at 50 uM after 16 to 20 hrs by broth microdilution assay (reference value: […] ug/ml)
[16] = system: Klebsiella pneumoniae; assay: Inhibition of beta lactamase AmpC in Klebsiella pneumoniae C660 assessed as potentiation of meropenem-induced antibacterial activity by measuring meropenem MIC at 50 uM after 16 to 20 hrs by broth microdilution assay (reference value: 32 ug/ml)
[17] = system: HEK-293T; assay: Cytotoxicity against HEK293T cells up to 100 uM after 72 hrs by MTT assay; format: cell-based; details: human
[18] = system: MCF7; assay: Cytotoxicity against human MCF7 cells up to 100 uM after 72 hrs by MTT assay; format: cell-based; details: mcf7, 72 h
[19] = biological target: Class A carbapenemase KPC-2 (Escherichia coli) (UniProt A8DS27); details: BAA-2340
[20] = biological target: Class A carbapenemase KPC-2 (Escherichia coli) (UniProt A8DS27); details: 11119
[21] = biological target: T1, Angiotensin-converting enzyme 2 (ACE-2) (Homo sapiens, UniProt Q9BYF1); assay: Inhibition of human C-terminal His/FLAG-tagged ACE-2 expressed in HEK293 cells at 50 uM preincubated for 10 mins followed by Mca-Ala-Pro-Lys(Dnp)-OH substrate addition by fluorescence assay relative to control; format: cell-based; details: probe Mca-Ala-Pro-Lys(Dnp)-OH
[22] = as §1; format: subcellular, Lysate; details: 20 min, 50 µM
[23] = as §2; format: subcellular, Lysate; details: human, 20 min, 50 µM
[24] = biological target: T1, Angiotensin-converting enzyme 2 (ACE-2); assay: as §3; format: cell-based; details: probe Mca-Ala-Pro-Lys(Dnp)-OH

T1 sequence (Q9BYF1 whole entry): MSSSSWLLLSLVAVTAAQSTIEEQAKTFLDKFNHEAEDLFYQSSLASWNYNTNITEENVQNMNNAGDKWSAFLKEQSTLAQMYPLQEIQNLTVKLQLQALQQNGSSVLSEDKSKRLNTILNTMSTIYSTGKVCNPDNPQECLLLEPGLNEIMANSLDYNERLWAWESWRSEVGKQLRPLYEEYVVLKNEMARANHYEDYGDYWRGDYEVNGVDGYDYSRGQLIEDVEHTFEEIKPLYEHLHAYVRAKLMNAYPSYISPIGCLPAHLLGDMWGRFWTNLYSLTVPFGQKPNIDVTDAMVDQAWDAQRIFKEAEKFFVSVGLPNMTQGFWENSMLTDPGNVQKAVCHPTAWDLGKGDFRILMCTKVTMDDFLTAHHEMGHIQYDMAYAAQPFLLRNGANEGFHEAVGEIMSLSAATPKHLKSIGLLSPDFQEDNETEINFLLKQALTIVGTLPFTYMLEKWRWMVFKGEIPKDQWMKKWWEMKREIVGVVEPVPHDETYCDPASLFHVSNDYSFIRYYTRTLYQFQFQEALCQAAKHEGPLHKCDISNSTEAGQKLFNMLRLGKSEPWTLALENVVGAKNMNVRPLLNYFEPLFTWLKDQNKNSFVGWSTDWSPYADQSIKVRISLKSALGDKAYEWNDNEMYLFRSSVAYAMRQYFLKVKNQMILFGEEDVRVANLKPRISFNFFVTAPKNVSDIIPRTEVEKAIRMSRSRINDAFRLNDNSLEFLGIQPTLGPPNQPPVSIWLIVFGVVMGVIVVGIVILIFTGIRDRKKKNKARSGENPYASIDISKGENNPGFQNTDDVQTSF
Sequence of Angiotensin-converting enzyme 2 (Q9BYF1 whole entry): as above

Row | Structure (SMILES) | Ki [1] [µM] | Ki [2] [µM] | Ki [3] [µM] | Ki [4] [µM] | Ki [5] [µM] | Ki [6] [µM] | Ki [7] [µM] | Ki [8] [µM] | further results
1 | C[C@H](CS)C(=O)NCB(O)O | 0.76 | 67.1 | 7.34 | 2.23 | 2.7 | 41 | 6.46 | 70.2 | inhibition at 20 min, 50 µM [9]: < 50%; inhibition at 20 min, 50 µM [10]: < 50%; inhibition (INH) [11]: Not Active; MIC [12]: 16 µg/mL; MIC [13]: 64 µg/mL; MIC [14]: 8 µg/mL; MIC [15]: 4 µg/mL; MIC [16]: 8 µg/mL; Activity [17]: Non-Toxic; Activity [18]: Non-Toxic; MIC [19]: 0.5 µg/mL (≈ 2.82 µM); MIC [20]: 4 µg/mL (≈ 22.6 µM)
2 | O=C(N[C@@H](Cc1ccccc1)B(O)O)C(CS)Cc1ccccc1 (some centres not stated) | 3 | 6.87 | 5.79 | 14.3 | 13.7 | 114 | 11.6 | > 300 | inhibition at 10 min, 50 µM [21]: 44.6%; inhibition (INH) [22]: Not Active; inhibition (INH) [23]: Not Active; inhibition at 10 min, 100 µM [24]: 63.2%
